From US20250092065A1, “2-(INDAZOL-5-YL)-6-(PIPERIDIN-4-YL)-1,7-NAPHTHYRIDINE DERIVATIVES AND RELATED COMPOUNDS AS MODULATORS FOR SPLICING NUCLEIC ACIDS AND FOR THE TREATMENT OF PROLIFERATIVE DISEASES” (REMIX THERAPEUTICS INC., priority 2022, published 2025)

How the values were obtained:
K562 cells = assay: Cell Titer Glo 2.0 cell viability (toxicity) assay, K562; conditions: 500 cells/well, 72 hours
Method: Compounds described herein were screened for toxicity in K562 (human chronic myelogenous leukemia) and SH-SY5Y (human neuroblastoma) cells using a Cell Titer Glo 2.0 assay.
Cells were plated at 500 cells/well (K562 cells) in 45 μL of IMDM supplemented with 10% FBS in a 384-well opaque plate. Wells containing only medium were used as a blank control. Test compounds (e.g., compounds of Formula (I) or (II)) were first serially diluted in DMSO then diluted 1:100 with EIDM+10% FBS. The final concentration of DMSO was 0.1% in each well. The cells were incubated for 72 hours at 37° C. and 5% CO2 before assaying with Cell Titer Glo 2.0 reagent.

MYB = assay: HiBiT protein abundance assay, MYB (K562 HiBiT knock-in); type: cell-based, human; conditions: HiBiT knock-in K562 cells, 24 hours, top dose 10 μM
Summary of the method: (§1)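 Endogenously HiBiT-tagged K562 lines were treated for 24 h at 37 °C with 10-point 3-fold dilutions (top 10 μM final, DMSO ≤0.25%). Lytic LgBiT complementation luminescence was normalized between unmodified K562 (PC) and DMSO-treated tagged cells (NC); IC50 was interpolated at 50% from a four-parameter logistic fit.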

HTT = assay: HiBiT protein abundance assay, HTT (K562 HiBiT knock-in); type: cell-based, human; conditions: HiBiT knock-in K562 cells, 24 hours, top dose 10 μM
Summary of the method: as §1

Target C [1] = assay: HiBiT protein abundance assay, Target C (K562 HiBiT knock-in); type: cell-based, human; conditions: HiBiT knock-in K562 cells, 24 hours, top dose 10 μM
Summary of the method: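 K562 HiBiT knock-in cells (10000/well) were treated 24 h at 37° C with a 10-point 3-fold dilution series (top 10 μM final, ≤0.25% DMSO). HiBiT luminescence was read after lytic LgBiT detection. Percent response used unmodified K562 and DMSO-treated knock-in controls, and IC50 came from a four-parameter fit at 50% of untreated.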

Target C [2] = assay: RT-qPCR canonical junction panel assay, Target C mRNA; type: cell-based; conditions: Table 4, read-out: Target C IC50 (decrease in CJ mRNA levels)
Summary of the method: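 IC50 is the concentration giving 50% CJ decrease, from a 4-parameter logistic fit of percent response; response derived from ΔΔCt against housekeeper and DMSO over a fixed ΔCt window, with canonical exon-junction qPCR in compound-treated K562 or A673 cells.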

Row | SMILES | Effect of Exemplary Compounds on Cell Viability, K562 (K562 cells) | IC50 (MYB) [nM] | IC50 (HTT) [nM] | IC50 (Target C [1]) [nM] | IC50 (Target C [2]) [nM]
1 | Cc1nc2cc(O)c(-c3ccc4nc(N5CC[C@@H](N[C@H]6C[C@@H](F)C6)C5)ccc4n3)cc2o1 (stereo in doubt) [Compound 395] | B (B represents 100-1000 nM) | 100 to 1000 | 100 to 1000 | 100 to 1000 | 1000 to 10000
2 | Cc1nc2cc(O)c(-c3ccc4nc(N5CC[C@H](N[C@H]6C[C@@H](F)C6)C5)ccc4n3)cc2o1 (stereo in doubt) [Compound 396] | B (B represents 100-1000 nM) | 100 to 1000 | < 100 | < 100 | 100 to 1000
3 | Cn1cc2cc(-c3ccc4nc(N5CC[C@@H](NC6(CF)CC6)C5)ccc4n3)c(O)cc2n1 [Compound 354, 5-{6-[(3R)-3-{[1-(fluoromethyl)cyclopropyl]amino}pyrrolidin-1-yl]-1,5-naphthyridin-2-yl}-2-methylindazol-6-ol] | B (B represents 100-1000 nM) | < 100 | < 100 | < 100 | < 100
4 | Cn1cc2cc(-c3ccc4nc(N5CC[C@H](NC6(CF)CC6)C5)ccc4n3)c(O)cc2n1 [Compound 355, 5-{6-[(3S)-3-{[1-(fluoromethyl)cyclopropyl]amino}pyrrolidin-1-yl]-1,5-naphthyridin-2-yl}-2-methylindazol-6-ol] | B (B represents 100-1000 nM) | < 100 | < 100 | < 100 | 100 to 1000
5 | Cc1c(O)c(-c2ccc3nc(N4CCC(NC5(CF)CC5)C4)ccc3n2)cc2cn(C)nc12 (stereo not shown) [Compound 360, 5-[6-(3-{[1-(fluoromethyl)cyclopropyl]amino}pyrrolidin-1-yl)-1,5-naphthyridin-2-yl]-2,7-dimethylindazol-6-ol] | B (B represents 100-1000 nM) | < 100 | < 100 | < 100 | < 100
6 | Cc1c(O)c(-c2cc(C(C)O)c3nc(N4CCNCC4)ccc3n2)cc2cn(C)nc12 (stereo not shown) [Compound 364, 5-[4-(1-hydroxyethyl)-6-(piperazin-1-yl)-1,5-naphthyridin-2-yl]-2,7-dimethylindazol-6-ol] | B (B represents 100-1000 nM) | 1000 to 10000 | > 10000 | 1000 to 10000 | > 10000
7 | Cc1c(O)c(-c2ncc3nc(C4CCNCC4)ccc3n2)cc2cn(C)nc12 [Compound 370, 2,7-dimethyl-5-[6-(piperidin-4-yl)pyrido[3,2-d]pyrimidin-2-yl]indazol-6-ol] | C (C represents 1000-9999 nM) | 100 to 1000 | 100 to 1000 | 100 to 1000 | 1000 to 10000
8 | Cc1nc2c(F)c(O)c(-c3ccc4nc(N5CC[C@H](N[C@H]6C[C@@H](F)C6)C5)ccc4n3)cc2o1 [Compound 374, 4-fluoro-2-methyl-6-[6-(3-{[(1r,3r)-3-fluorocyclobutyl]amino}pyrrolidin-1-yl)-1,5-naphthyridin-2-yl]-1,3-benzoxazol-5-ol] | A (A represents <100 nM) | < 100 | < 100 | < 100 | < 100
9 | CNC1CCN(c2ccc3nc(-c4cc(C#N)c5nc(C)cn5c4)ncc3n2)C1 (stereo not shown) [Compound 382, 2-methyl-6-{6-[3-(methylamino)pyrrolidin-1-yl]pyrido[3,2-d]pyrimidin-2-yl}imidazo[1,2-a]pyridine-8-carbonitrile] | A (A represents <100 nM) | < 100 | 100 to 1000 | 1000 to 10000 | 1000 to 10000
10 | Cn1cc2cc(-c3ccc4nc(N5CC[C@H](NC6CC(F)(F)C6)C5)ccc4n3)c(O)cc2n1 [Compound 384] | D (D represents greater than 10 μM in K562 cells) | 1000 to 10000 | 1000 to 10000 | 1000 to 10000 | > 10000
11 | Cn1cc2cc(-c3ccc4nc(N5CC[C@@H](NC6CC(F)(F)C6)C5)ccc4n3)c(O)cc2n1 [Compound 385] | D (D represents greater than 10 μM in K562 cells) | 100 to 1000 | < 100 | 100 to 1000 | 100 to 1000
